Results taken from paper PMC10222987 (Viruses, 2023).

Assay: in vivo
Details: BALB/c, mouse, sc; for AUC(0-t): AUC0–24

**Q.** Which results are given for O=C1c2c(O)c(=O)ccn2N([C@@H]2c3ccccc3SCc3c2ccc(F)c3F)[C@@H]2COCCN12 [baloxavir acid]?
**A.** AUC(0-t) (0.125 mg/kg): 267 ng·h/mL; Cmax (0.125 mg/kg): 18.7 ng/mL; AUC(0-t) (0.25 mg/kg): 535 ng·h/mL; Cmax (0.25 mg/kg): 37.3 ng/mL; AUC(0-t) (0.5 mg/kg): 961 ng·h/mL; Cmax (0.5 mg/kg): 66.1 ng/mL; AUC(0-t) (1 mg/kg): 1810 ng·h/mL; Cmax (1 mg/kg): 124 ng/mL; Cmax (2 mg/kg): 222 ng/mL; Cmax (4 mg/kg): 417 ng/mL; AUC(0-t) (8 mg/kg): 6380 ng·h/mL; Cmax (8 mg/kg): 414 ng/mL; AUC(0-t) (16 mg/kg): 11100 ng·h/mL; Cmax (16 mg/kg): 726 ng/mL; AUC(0-t) (32 mg/kg): 8860 ng·h/mL; Cmax (32 mg/kg): 682 ng/mL; AUC(0-t) (64 mg/kg): 12600 ng·h/mL; Cmax (64 mg/kg): 938 ng/mL
